# Results as given in US4132847A, “4-Pyrone prostaglandin antagonists” (Pfizer Inc., priority 1977, dated 1979).
# Test system: accumulation of c-AMP by PGE2
# Assay: Antagonism of PGE2-enhanced c-AMP levels in mouse thymus cells (radioimmunoassay)
# Assay type: cell-based
# Text: A suitable test for this purpose is based on the enhancement of cyclic AMP (adenosine-3',5'-monophosphate) levels in tissues due to adenyl cyclase stimulated by the action of prostaglandins of the PGE2 type. An exemplification of such a test used to determine the antagonist activity of the compounds of the present invention is as follows. A BC 57/BL (Jackson Laboratories) mouse is sacrificed and the thymus gland removed and teased apart to provide thymus cells which are suspended in a culture medium. The degradation of c-AMP is blocked by addition of 4-(3-butoxy-4-methoxybenzyl)-2-imidazolidinone (Hoffman-LaRoche, Ro 20-1724), a c-AMP phosphodiesterase inhibitor. A measured dose of the compound under test is added to the suspension of cells and the suspension is incubated at 37° C. for ten minutes. A measured dose of PGE2 is added to the suspension, which is then incubated for a further period of 30 minutes. The cells are then centrifuged, washed and the c-AMP extracted with ethanol. The ethanol extract is evaporated to dryness, redissolved in buffer solution and the c-AMP level determined by a radioimmunoassay, see Zimmerman et al, Anal. Biochem. 71, 79 (1976) and Steiner et al, J. Biol. Chem. 247, 1106 (1972). Comparison of the enhancement of c-AMP levels produced by PGE2 alone and by PGE2 together with the compound under test allow determination of the antagonist activity.
# An example of the results from this test are those obtained with 2-(3-hydroxy-trans-1-octenyl)-3-(5-carboethoxypentyloxy)-4-pyrone. The initial c-AMP level of the cell culture was measured as 1.9 ± 0.7 picomole c-AMP/10^7 cells. Incubation with 10^-5 M PGE2 alone enhanced the level to 88 ± 7 picomole c-AMP/10^7 cells. By comparison, when the cells were incubated for ten minutes with 7 × 10^-5 M of the test compound the c-AMP level was measured at 2 ± 0.1 picomole c-AMP/10^7 cells. Following incubation for 30 minutes with 10^-5 M PGE2 the level was measured as 51 ± 5 picomole c-AMP/10^7 cells. Similarly, in a second experiment, after ten minutes incubation with 7 × 10^-6 M of the test compound, the c-AMP level was measured at 1.4 ± 0.2 picomoles c-AMP/10^7 cells; after 30 minutes incubation with 10^-5 M PGE2 the c-AMP level was measured as 69 ± 8 picomoles c-AMP/10^7 cells. […] Both of these compounds are well known in the art as prostaglandin antagonists.
smiles,measurement,setting,value
CCCCCC(O)/C=C/c1occc(=O)c1OCCCCCC(=O)OCC (racemic) [2-[(3RS)-3-hydroxy-trans-1-octenyl]-3-(5-carboethoxypentyloxy)-4-pyrone],c-AMP level,"7 × 10^-5 M test compound, then 30 minutes with 10^-5 M PGE2 (PGE2 alone 88 ± 7)",51 ± 5 picomole c-AMP/10^7 cells
same,c-AMP level,"second experiment, 7 × 10^-6 M test compound, then 30 minutes with 10^-5 M PGE2",69 ± 8 picomoles c-AMP/10^7 cells
same,c-AMP level,"second experiment, ten minutes with 7 × 10^-6 M test compound, before PGE2",1.4 ± 0.2 picomoles c-AMP/10^7 cells
same,c-AMP level,"thymus cells incubated ten minutes with 7 × 10^-5 M test compound, before PGE2",2 ± 0.1 picomole c-AMP/10^7 cells
"CCCCCCC#C[C@H]1CCC[C@@H]1OCCCCCC(=O)O [7-oxa-13-prostynoic acid, reference compound]",inhibition at 100 µM,"Mus musculus, concentration of 10^-4 M, same test conditions",45%
"CCCCC[C@H](O)/C=C/[C@H]1[C@H](O)CC(=O)[C@@H]1C/C=C\CCCC(=O)O [PGE2, reference compound]",c-AMP level,incubation with 10^-5 M PGE2 alone (initial level 1.9 ± 0.7),88 ± 7 picomole c-AMP/10^7 cells
"CC(=O)NNC(=O)N1Cc2ccccc2Oc2ccc(Cl)cc21 [SC-19220, reference compound]",inhibition at 50 µM,"Mus musculus, 5 × 10^-5 M, same test conditions",30%
